Data set [1] concerns HBV. As to the kind of experiment: HBV inhibitory activity: HBV DNA in the culture medium of HepG2.2.15 cells by q-PCR. Particulars: Hepatitis B virus, HepG2.2.15, 144 h, HepG2.2.15 cells, 6 days of compound treatment, HBV DNA in culture medium by q-PCR, highest concentration 10 μM; read-out: EC50. It counts as cell-based. Summed up:
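HepG2.2.15 cells in 2% FBS medium, 40,000 per well, treated 6 days with compound (medium refreshed once), eight 3-fold dilutions from 10 μM top. HBV DNA extracted from culture medium and quantified by q-PCR; EC50 averaged over repeats. Cytotoxicity run in parallel at 5,000 cells per well, top 100 μM, giving CC50.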

A short description of data set [2]: Cytotoxicity determination in HepG2.2.15 cells (CCK-8). The class given is cell-based. Particulars: human, 6 days of compound treatment, CCK-8, highest concentration 100 μM. The procedure, abridged:
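HepG2.2.15 cells seeded at 5,000 cells/well in 2% FBS medium, incubated overnight at 37° C., then treated 6 days with compounds (8 points, 3-fold dilutions, top 100 μM), medium refreshed once midway. CCK-8 added for 2.5 h; A450 read against 630 nm reference; CC50 calculated, averaged over repeats.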

The EC50 is the midpoint of the concentration-response curve. One may read the CC50 as the concentration at which the toxic effect on the cells reaches its halfway point. A high value points to lower toxicity to the cells. Regarding `COC(=O)C1=C([C@H]2CC[C@H](NS(=O)(=O)C3COC3)CC2)NC(c2nccs2)=NC1c1ccc(F)cc1Cl` (single isomer, unassigned) [Compound 384B, (trans)-Methyl 4-(2-chloro-4-fluorophenyl)-6-(4-(oxetane-3-sulfonamido)cyclohexyl)-2-(thiazol-2-yl)-1,4-dihydropyrimidine-5-carboxylate], the EC50 in data set [1] amounted to 65 nM. The compound further returned a CC50 at 6 days in data set [2] of 34000 nM.
As to `COC(=O)C1=C([C@H]2CC[C@H](N(C)S(C)(=O)=O)CC2)NC(c2nccs2)=NC1c1ccc(F)cc1Cl` (single isomer, unassigned) [Compound 388B, (trans)-Methyl 4-(2-chloro-4-fluorophenyl)-6-(4-(N-methylmethylsulfonamido)cyclohexyl)-2-(thiazol-2-yl)-1,4-dihydropyrimidine-5-carboxylate], in data set [1], the EC50 worked out at 28 nM. In data set [2], this compound had a CC50 at 6 days of 27800 nM.
The corresponding values for `COC(=O)C1=C([C@H]2CC[C@H](NS(C)(=O)=O)CC2)NC(c2ncc(F)cc2F)=NC1c1ccc(F)cc1Cl` (single isomer, unassigned) [Compound 396B, (trans)-Methyl 4-(2-chloro-4-fluorophenyl)-2-(3,5-difluoropyridin-2-yl)-6-(4-(methylsulfonamido)cyclohexyl)-1,4-dihydropyrimidine-5-carboxylate] are 20 nM and 22500 nM.
The corresponding values for `COC(=O)C1=C(C2CCN(S(C)(=N)=O)CC2)NC(c2nccs2)=NC1c1ccc(F)cc1Cl` (single isomer, unassigned) [Compound 401Y, Methyl 4-(2-chloro-4-fluorophenyl)-6-(1-(S-methylsulfonimidoyl)piperidin-4-yl)-2-(thiazol-2-yl)-1,4-dihydropyrimidine-5-carboxylate] are 24 nM and 60000 nM.
For `COC(=O)C1=C([C@H]2CC[C@H](N(CCCO)S(C)(=O)=O)CC2)NC(c2nccs2)=NC1c1ccc(F)cc1Cl` (single isomer, unassigned) [Compound 431B, (trans)-Methyl 4-(2-chloro-4-fluorophenyl)-6-(4-(N-(3-hydroxypropyl)methylsulfonamido)cyclohexyl)-2-(thiazol-2-yl)-1,4-dihydropyrimidine-5-carboxylate], the EC50 in data set [1] stood at 52 nM. In data set [2], this compound returned a CC50 at 6 days of 28100 nM.
For `COC(=O)C1=C([C@H]2CC[C@H](N(CCO)C(C)=O)CC2)NC(c2nccs2)=NC1c1ccc(F)c(F)c1Cl` (single isomer, unassigned) [Compound 433B, (trans)-Methyl 4-(2-chloro-3,4-difluorophenyl)-6-(4-(N-(2-hydroxyethyl)acetamido)cyclohexyl)-2-(thiazol-2-yl)-1,4-dihydropyrimidine-5-carboxylate] the same measures were 59 nM and 17400 nM.
For `COC(=O)C1=C([C@H]2CC[C@H](N(CCO)CC(F)(F)F)CC2)NC(c2nccs2)=NC1c1ccc(F)c(F)c1Cl` (single isomer, unassigned) [Compound 434B, (trans)-Methyl 4-(2-chloro-3,4-difluorophenyl)-6-(4-((2-hydroxyethyl)(2,2,2-trifluoroethyl)amino)cyclohexyl)-2-(thiazol-2-yl)-1,4-dihydropyrimidine-5-carboxylate] the same measures were 128 nM and 6800 nM.
For `CCOC(=O)C1=C([C@H]2C[C@@H](NS(C)(=O)=O)C2(C)C)NC(c2nccs2)=NC1c1ccc(F)cc1Cl` (single isomer, unassigned) [Compound 437A, (cis)-Ethyl 4-(2-chloro-4-fluorophenyl)-6-(2,2-dimethyl-3-(methylsulfonamido)cyclobutyl)-2-(thiazol-2-yl)-1,4-dihydropyrimidine-5-carboxylate] the same measures were 600 nM and 10400 nM.
For the compound `COC(=O)C1=C([C@H]2CC[C@H](N(CC#N)S(C)(=O)=O)CC2)NC(c2nccs2)=NC1c1ccc(F)cc1Cl` (single isomer, unassigned) [Compound 448A, (trans)-Methyl 4-(2-chloro-4-fluorophenyl)-6-(4-(N-(cyanomethyl)methylsulfonamido)cyclohexyl)-2-(thiazol-2-yl)-1,4-dihydropyrimidine-5-carboxylate], the EC50 in data set [1] was 8 nM. The same compound had a CC50 at 6 days in data set [2] of over 100000 nM.
For `COC(=O)C1=C([C@H]2CCCC(C(=O)O)C2)NC(c2nccs2)=NC1c1cccc(F)c1Cl` (stereo in doubt) [Compound 25, cis-3-(6-(2-Chloro-3-fluorophenyl)-5-(methoxycarbonyl)-2-(thiazol-2-yl)-3,6-dihydropyrimidin-4-yl)cyclohexanecarboxylic Acid] the same measures were 165 nM and 35300 nM.
The corresponding values for `CCOC(=O)C1=C(C2CCN(S(=O)(=O)C3CC(C(=O)O)C3)CC2)NC(c2nccs2)=NC1c1ccc(F)c(F)c1Br` (stereo in doubt) [Compound 199B, (trans)-3-((4-(6-(2-bromo-3,4-difluorophenyl)-5-(ethoxycarbonyl)-2-(thiazol-2-yl)-3,6-dihydropyrimidin-4-yl)piperidin-1-yl)sulfonyl)cyclobutanecarboxylic Acid] are under 4.6 nM and 14200 nM.
For `COC(=O)C1=C([C@H]2CC[C@H](S(=O)(=O)N3CC[C@@H](C(=O)O)C3)CC2)NC(c2nccs2)=NC1c1ccc(F)c(F)c1Cl` (stereo in doubt) [Compound 293C, (trans)-1-((4-((R)-6-(2-Chloro-3,4-difluorophenyl)-5-(methoxycarbonyl)-2-(thiazol-2-yl)-3,6-dihydropyrimidin-4-yl)cyclohexyl)-sulfonyl)pyrrolidine-3-carboxylic Acid] the same measures were 150 nM and 85700 nM.
Consider `COC(=O)C1=C(C2CCN(C(C)=O)CC2)NC(c2nccs2)=NC1c1ccc(F)cc1Cl` (centres unmarked) [Compound 2, Methyl 6-(1-acetylpiperidin-4-yl)-4-(2-chloro-4-fluorophenyl)-2-(thiazol-2-yl)-1,4-dihydropyrimidine-5-carboxylate], for which the EC50 in data set [1] stood at 232 nM. In addition, the CC50 at 6 days in data set [2] is 98400 nM.
The corresponding values for `COC(=O)C1=C(C2CCNC(=O)C2)NC(c2nccs2)=NC1c1ccc(F)cc1Cl` (centres unmarked) [Compound 3, Methyl 4-(2-chloro-4-fluorophenyl)-6-(2-oxopiperidin-4-yl)-2-(thiazol-2-yl)-1,4-dihydro-pyrimidine-5-carboxylate] are 38 nM and 32800 nM.
The corresponding values for `COC(=O)C1=C(C2CCN(S(=O)(=O)C(C)(C)C(=O)O)CC2)NC(c2nccs2)=NC1c1ccc(F)cc1Cl` (centres unmarked) [Compound 7, 2-((4-(6-(2-Chloro-4-fluorophenyl)-5-(methoxycarbonyl)-2-(thiazol-2-yl)-3,6-dihydro-pyrimidin-4-yl)piperidin-1-yl)sulfonyl)-2-methylpropanoic Acid] are 168 nM and over 100000 nM.
With `COC(=O)C1=C([C@H]2CC[C@H](C(=O)O)CC2)NC(c2nccs2)=NC1c1cccc(F)c1Cl` (stereo partly drawn) [Compound 17, trans-4-(6-(2-Chloro-3-fluorophenyl)-5-(methoxycarbonyl)-2-(thiazol-2-yl)-3,6-dihydropyrimidin-4-yl)cyclohexanecarboxylic Acid], the EC50 in data set [1] stood at 300 nM. Besides, in data set [2], the CC50 at 6 days was 93800 nM.
The corresponding values for `COC(=O)C1=C(C2(F)CCN(S(C)(=O)=O)CC2)NC(c2nccs2)=NC1c1cccc(F)c1Cl` (centres unmarked) [Compound 36, Methyl 4-(2-chloro-3-fluorophenyl)-6-(4-fluoro-1-(methylsulfonyl)-piperidin-4-yl)-2-(thiazol-2-yl)-1,4-dihydropyrimidine-5-carboxylate] are 153 nM and 20700 nM.
For `COC(=O)C1=C(C2CCOCC2)NC(c2nccs2)=NC1c1ccc(F)cc1Cl` (centres unmarked) [Compound 51, Methyl 4-(2-chloro-4-fluorophenyl)-6-(tetrahydro-2H-pyran-4-yl)-2-(thiazol-2-yl)-1,4-dihydropyrimidine-5-carboxylate] the same measures were 112 nM and 9900 nM.
The corresponding values for `COC(=O)C1=C(C2CCN(C(=O)C(C)(C)C)C2)NC(c2nccs2)=NC1c1ccc(F)cc1Cl` (centres unmarked) [Compound 68, Methyl 4-(2-chloro-4-fluorophenyl)-6-(1-pivaloylpyrrolidin-3-yl)-2-(thiazol-2-yl)-1,4-dihydropyrimidine-5-carboxylate] are 581 nM and 72900 nM.
With `COC(=O)C1=C(C2CCC(C(=O)O)C2)NC(c2nccs2)=NC1c1cccc(F)c1Cl` (centres unmarked) [Compound 77, 3-(6-(2-Chloro-3-fluorophenyl)-5-(methoxycarbonyl)-2-(thiazol-2-yl)-3,6-dihydropyrimidin-4-yl)cyclopentanecarboxylic Acid], the EC50 in data set [1] stood at 71 nM. The CC50 at 6 days in data set [2] was found to be 34200 nM.
For `COC(=O)C1=C(C2CN(S(=O)(=O)C3CCC3)C2)NC(c2nccs2)=NC1c1ccc(F)cc1Cl` (centres unmarked) [Compound 80, Methyl 4-(2-chloro-4-fluorophenyl)-6-(1-(cyclobutylsulfonyl)-azetidin-3-yl)-2-(thiazol-2-yl)-1,4-dihydropyrimidine-5-carboxylate] the same measures were 107 nM and 6300 nM.
On to `CCNS(=O)(=O)N1CC(C2=C(C(=O)OC)C(c3ccc(F)cc3Cl)N=C(c3nccs3)N2)C1` (centres unmarked) [Compound 81, 4-(2-Chloro-4-fluoro-phenyl)-6-(1-ethylsulfamoyl-azetidin-3-yl)-2-thiazol-2-yl-1,4-dihydro-pyrimidine-5-carboxylic Acid Methyl Ester], for which the EC50 in data set [1] was 119 nM. In addition, the CC50 at 6 days in data set [2] worked out at 10500 nM.

The values are drawn from patent US11639350B2, “Heteroaryldihydropyrimidine derivatives and methods of treating hepatitis B infections” (Janssen Pharmaceutica NV, priority 2018, dated 2023).
